Blank lines part the entries; values can stand above or below the compound they belong to.
How the values were obtained:
hypertrophic scar = assay: Rabbit ear hypertrophic scar model, scar elevation index (SEI) by histomorphometry; format: in vivo, New Zealand White rabbits
[1] = Solubility of statins in the topical vehicle / microemulsion system; format: physicochemical
Excerpt: Transdermal penetration is the critical limitation in topical application. […] The stratum corneum is hydrophobic and a barrier for any topically applied reagent, and so hydrophobic statins should have increased penetration^18. […] Dosing schedules were chosen based upon in vitro dosing necessary to interfere with CTGF expression^11-13,22,23, and extrapolated to animal models based upon our experience with dose response curves for growth factors in our rabbit ear model^24.

Collagen 1A1 mRNA = assay: Quantification of Collagen 1A1 mRNA expression in dermal scar tissue (qPCR); format: in vivo, New Zealand White rabbits; details: high-dose (10%) simvastatin topical, mean±SEM, p<0.01
Description: (§1) Total RNA was extracted from dermal scar tissue of high-dose simvastatin topical treatment and control scars using TRI reagent (Sigma-Aldrich, St. Louis, MO), and contaminated DNA was removed with Turbo DNA-free kit (Ambion, Austin, TX). The cDNA was synthesized from one μg of total RNA by superscript II reverse transcriptase (Invitrogen, Grand Island, NY) with 100 ng of random primers in 20 μl of volume. Synthesized cDNA was quantified in a sequence detection system (ABI StepOnePlus; Applied Biosystems, Foster City, CA) using SYBR green and specific primers of CTGF and collagen 1A1, and 18 S rRNA was set as endogenous control. The sequence of primers is as followed: CTGF (5′-CTTCTGTCGGCTGGAGAAAC-3′ (SEQ ID NO:1) & 5′-TTAGCCCGGTACGTCTTCAC-3′ (SEQ ID NO:2)); Collagen 1A1: (5′-TAAGAGCTCCAAGGCCAAGA-3′(SEQ ID NO:3) & 5′-TGTTCTGAGAGGCGTGATTG-3′ (SEQ ID NO:4)); Glyceraldehyde 3-phosphate dehydrogenase (5′-AGGTCATCCACGACCACTTC-3′ (SEQ ID NO:5) & 5′-GTGAGTTTCCCGTTCAGCTC-3′ (SEQ ID NO:6)).
(§2) For statistical analysis of histological and molecular analysis results, Student's paired t test was applied to see if there is a difference between treatment and control group, p<0.05 was used as significant. All values were represented as mean±standard error.

CTGF mRNA = assay: Quantification of CTGF mRNA expression in dermal scar tissue (qPCR); format: in vivo, New Zealand White rabbits; details: high-dose (10%) simvastatin topical, mean±SEM, p<0.01
Description: as §1, §2

Structure (SMILES): CC(C)CCC[C@@H](C)[C@H]1CC[C@H]2[C@@H]3CC=C4C[C@@H](O)CC[C@]4(C)[C@H]3CC[C@]12C [cholesterol]
- Effect of cholesterol on reducing scarring (hypertrophic scar; topical cholesterol in vehicle): mild, not statistically effect

- Solubility in the vehicle tested [1]: limited solubility
Structure (SMILES): CC[C@H](C)C(=O)O[C@H]1C[C@@H](C)C=C2C=C[C@H](C)[C@H](CC[C@@H]3C[C@@H](O)CC(=O)O3)[C@H]21 [lovastatin]

Structure (SMILES): CC[C@H](C)C(=O)O[C@H]1C[C@H](O)C=C2C=C[C@H](C)[C@H](CC[C@@H](O)C[C@@H](O)CC(=O)O)[C@H]21 [pravastatin]
- Scar elevation index (SEI) (hypertrophic scar; intradermal 100 μl 10 μM pravastatin in PBS per wound at POD 15, 18, 21, harvest POD 28, mean±standard error, saline control 1.71±0.08, p=0.0009): 1.55±0.07

Structure (SMILES): CCC(C)(C)C(=O)O[C@H]1C[C@@H](C)C=C2C=C[C@H](C)[C@H](CC[C@@H]3C[C@@H](O)CC(=O)O3)[C@H]21 [simvastatin]
- mRNA expression of Collagen 1A1 compared to vehicle control (Collagen 1A1 mRNA): 48.5±14%
- mRNA expression of CTGF compared to vehicle control (CTGF mRNA): 53.8±8.0%

From patent publication US12447160B2, “Topical treatment of wounds with statins and cholesterol for scar reduction” (Northwestern University, priority 2017, dated 2025)
